Consider 2 compounds from patent publication US9427468B2, “Compositions and methods for diagnosing and treating community-acquired methicillin-resistant Staphylococcus aureus” (priority 2007, dated 2016).

Assay [1] concerns PBP4. Particulars: cited from earlier work.
Assay [2] has as its system MW2 ex (MW2 cured of plasmid pMW2). Kind of assay: MIC by microdilution (CLSI). The conditions noted are these: Staphylococcus aureus, Table 1. Type of assay: cell-based. The source says: (§1) Experiments were first performed using mutants of various PBPs. In-frame deletion mutants of the genes encoding PBP3 (MW1504) and PBP4 (MW0604), pbp3 and pbp4 respectively, were generated in the CA-MRSA strain MW2 and in HA-MRSA strain COL using the temperature-sensitive allelic replacement vector pMAD (Arnaud, M. et al. 2004. Appl. Environ. Microbiol. 70:6887-6891). PBP4 was also deleted in the HA-MRSA strains Mu50 and N315 and in the CA-MRSA strain USA300. […] Minimum inhibitory concentrations (MICs) were determined according to the Clinical and Laboratory Standards Institute and are a standard method for defining antibiotic efficacy against different organisms. Bacteria, grown to an OD650=1, were added to cation-supplemented Mueller Hinton broth (CSMHB) to achieve a final concentration of 5×10^5 CFU/ml.
(§2) Minimum inhibitory concentrations and minimum bactericidal concentrations (MIC and MBC, respectively) were determined for each isolate in triplicate by microdilution techniques with an inoculum of 5×10^5 CFU/ml according to the Clinical and Laboratory Standards Institute guidelines. Aliquots (5 μl) from clear wells were plated onto TSA drug-free plates for the determination of MBCs, followed by incubation at 37° C. for 24 and 48 hours. For the mutant strains, each one of the three clones was tested. MIC data were reported as median values from at least three independent experiments for each antibiotic. Also, strains containing pEPSA5-based plasmids were tested with and without xylose induction, but chloramphenicol was not added to avoid interference with beta-lactam resistance evaluation. […] The correct inocula were confirmed by plating serial dilutions on agar.

In assay [3] the test system is MW2 ex Δpbp3. Kind of assay: MIC by microdilution (CLSI). Format: cell-based. The conditions noted are these: Staphylococcus aureus, read-out: MICs.
Text: as §1, §2
(Broth dilution looks for growth in wells or tubes with falling amounts of substance.)

Assay [4] concerns COL HA-MRSA. Kind of assay: Minimum bactericidal concentration (MBC). Type of assay: cell-based, Staphylococcus aureus. The conditions noted are these: for combination: MBC of oxacillin with ¼ MIC cefoxitin. As for the experimental part:
as §2

Assay [5] deals with Mu50 HA-MRSA/VISA. Nature of the assay: Minimum bactericidal concentration (MBC). Type of assay: cell-based, Staphylococcus aureus. Particulars: for combination: MBC of oxacillin with ¼ MIC cefoxitin. How it is done: as §2
Assay [6] relates to MRSA252 HA-MRSA. Kind of assay: Minimum bactericidal concentration (MBC). The conditions noted are these: for combination: MBC of oxacillin with ¼ MIC cefoxitin. Type of assay: cell-based, Staphylococcus aureus. How it is done:
as §2

Assay [7] has as its system USA300 Δpbp4::pbp4. Nature of the assay: MIC by microdilution (CLSI). Format: cell-based, Staphylococcus aureus. Particulars: Table 1; USA300 Δpbp4::pbp4 (complemented).
Text: as §1, with “The present invention was described based on a series of experiments examining the biological basis for CA-MRSA strains versus HA-MRSA strains, focusing on the role of PBPs in CA-MRSA and generally in β-lactam resistance. Experiments” for “Experiments”
as §2

Assay [8] concerns MW2 Δpbp3. Kind of assay: MIC by microdilution (CLSI). Type of assay: cell-based, Staphylococcus aureus. Particulars: Table 1; MW2 Δpbp3.
Text: as §1, with “The present invention was described based on a series of experiments examining the biological basis for CA-MRSA strains versus HA-MRSA strains, focusing on the role of PBPs in CA-MRSA and generally in β-lactam resistance. Experiments” for “Experiments”
as §2

For assay [9], the system named is MW2 Δpbp3/4. Kind of assay: MIC by microdilution (CLSI). Type of assay: cell-based, Staphylococcus aureus. Particulars: Table 1, MW2 Δpbp3/4.
Text: as §1, with “The present invention was described based on a series of experiments examining the biological basis for CA-MRSA strains versus HA-MRSA strains, focusing on the role of PBPs in CA-MRSA and generally in β-lactam resistance. Experiments” for “Experiments”
as §2

Assay [10] deals with MW2 Δpbp4::pbp4. Kind of assay: MIC by microdilution (CLSI). Particulars: Table 1; MW2 Δpbp4::pbp4 (complemented). Format: cell-based, Staphylococcus aureus.
Text: as §1, with “The present invention was described based on a series of experiments examining the biological basis for CA-MRSA strains versus HA-MRSA strains, focusing on the role of PBPs in CA-MRSA and generally in β-lactam resistance. Experiments” for “Experiments”
as §2

The test system of assay [11] is USA300 Δpbp4. Nature of the assay: MIC by microdilution (CLSI). Format: cell-based, Staphylococcus aureus.
Text: as §1, with “The present invention was described based on a series of experiments examining the biological basis for CA-MRSA strains versus HA-MRSA strains, focusing on the role of PBPs in CA-MRSA and generally in β-lactam resistance. Experiments” for “Experiments”
as §2

For assay [12], the system named is MW2 Δpbp4. Nature of the assay: MIC by microdilution (CLSI). Format: cell-based, Staphylococcus aureus.
Text: as §1, with “The present invention was described based on a series of experiments examining the biological basis for CA-MRSA strains versus HA-MRSA strains, focusing on the role of PBPs in CA-MRSA and generally in β-lactam resistance. Experiments” for “Experiments”
as §2

Assay [13] concerns MRSA252 HA-MRSA. Nature of the assay: MIC and synergy assay. Particulars: for combination: MIC of oxacillin with ¼ MIC cefoxitin. Type of assay: cell-based, Staphylococcus aureus. How it is done: as §2

Values after ≈ are worked out from the molar mass of the structure shown. Where only a bound is given, the exact number is not on record here.

Turning to `CO[C@@]1(NC(=O)Cc2cccs2)C(=O)N2C(C(=O)O)=C(COC(N)=O)CS[C@@H]21` [CX, cefoxitin], the “affinity for PBP4” value in assay [1] is “high affinity”. The results for the MIC in [2] and in assay [3] were 16 µg/mL (≈ 37.4 µM) and 32 µg/mL (≈ 74.9 µM), respectively.

Consider `Cc1onc(-c2ccccc2)c1C(=O)N[C@@H]1C(=O)N2[C@@H]1SC(C)(C)[C@@H]2C(=O)O` [OX, oxacillin], for which the “MBC 48 hr” value in [4], in assay [5] and in assay [6] was over 256 µg/mL throughout. For the same compound, the MICs stood at 64 µg/mL in [7]; 64 µg/mL in assay [8]; 4 µg/mL in [9]; 1 µg/mL in assay [9] (listed as oxacillin); 64 µg/mL in assay [10]; 4 µg/mL in assay [11] (Table 1, USA300 Δpbp4). Moreover, the MICs was found to be 4 µg/mL in assay [11] (pbp4 mutant of USA300 with pbp2 expressed from inducible plasmid pEPSA5); 4 µg/mL in [12] (Table 1, MW2 Δpbp4); 4 µg/mL in assay [12] (pbp4 mutant of MW2 with pbp2 expressed from inducible plasmid pEPSA5). For the same compound, the “reduction in MIC on loss of pbp4” value in assay [11] (USA300 Δpbp4 versus USA300) and in assay [12] (MW2 Δpbp4 versus MW2) was 16 fold each time. Further, the “MICs 48 hr” value in assay [13] was determined as 256 µg/mL.
